Measured values taken from paper PMC6925601 (European journal of medicinal chemistry, 2019).

How the values were obtained:
[1] = molecular target: T1, human neutrophil elastase (HNE) (Homo sapiens, UniProt P08246); test: HNE inhibitory assay; type: biochemical
T1 sequence (P08246 30-247 limits assumed): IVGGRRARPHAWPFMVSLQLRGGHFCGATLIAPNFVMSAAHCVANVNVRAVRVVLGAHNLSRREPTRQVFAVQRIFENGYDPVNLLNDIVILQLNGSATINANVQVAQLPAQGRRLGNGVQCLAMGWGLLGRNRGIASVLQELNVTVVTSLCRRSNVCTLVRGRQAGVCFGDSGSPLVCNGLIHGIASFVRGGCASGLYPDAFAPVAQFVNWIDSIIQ

[2] = system: THP-1 monocytic leukemia cells; test: Anticancer cell cytotoxicity assay; type: cell-based; details: Homo sapiens, THP-1, 24 h, read-out: THP-1 IC50 (μM)
[3] = system: MonoMac6 monocytic leukemia cells; test: Anticancer cell cytotoxicity assay; type: cell-based; details: Homo sapiens, MONO-MAC-6, 24 h, read-out: MonoMac6 IC50 (μM)
[4] = system: HL60 promyelocytic leukemia cells; test: Anticancer cell cytotoxicity assay; type: cell-based; details: Homo sapiens, HL-60, 24 h, read-out: HL60 IC50 (μM)
[5] = system: SW-982 synovial sarcoma cells; test: Anticancer cell cytotoxicity assay; type: cell-based; details: Homo sapiens, SW982, 24 h, read-out: SW-982 IC50 (μM)
Jurkat T cells = test: Anticancer cell cytotoxicity assay; type: cell-based; details: Homo sapiens, 24 h, read-out: Jurkat IC50 (μM)
U936 = test: Anticancer cell cytotoxicity assay; type: cell-based; details: Homo sapiens, 24 h, read-out: U936 IC50 (μM)
[6] = system: MCF7 breast adenocarcinoma cells; test: Anticancer cell cytotoxicity assay; type: cell-based; details: Homo sapiens, MCF7, 24 h, read-out: MCF7 IC50 (μM)
[7] = system: LS174T colorectal adenocarcinoma cells; test: Anticancer cell cytotoxicity assay; type: cell-based; details: Homo sapiens, 24 h, read-out: LS174T IC50 (μM)
[8] = system: A549 lung carcinoma cells; test: Anticancer cell cytotoxicity assay; type: cell-based; details: Homo sapiens, A549, 24 h, read-out: A549 IC50 (μM)
[9] = system: primary peripheral blood mononuclear cells (PBMCs); test: Cytotoxicity assay; type: cell-based; details: Homo sapiens, PBMC, 24 h, read-out: PBMCs IC50 (μM)
[10] = system: nine tumor cell lines and primary PBMCs; test: Cytotoxicity across the panel of nine tumor cell lines and PBMCs; type: cell-based, human; details: 24 h, up to 50 μM
MKK7 = molecular target: T2, MKK7 (Homo sapiens, UniProt O14733); test: KINOMEscan kinase binding assay
T2 sequence (O14733 1-419): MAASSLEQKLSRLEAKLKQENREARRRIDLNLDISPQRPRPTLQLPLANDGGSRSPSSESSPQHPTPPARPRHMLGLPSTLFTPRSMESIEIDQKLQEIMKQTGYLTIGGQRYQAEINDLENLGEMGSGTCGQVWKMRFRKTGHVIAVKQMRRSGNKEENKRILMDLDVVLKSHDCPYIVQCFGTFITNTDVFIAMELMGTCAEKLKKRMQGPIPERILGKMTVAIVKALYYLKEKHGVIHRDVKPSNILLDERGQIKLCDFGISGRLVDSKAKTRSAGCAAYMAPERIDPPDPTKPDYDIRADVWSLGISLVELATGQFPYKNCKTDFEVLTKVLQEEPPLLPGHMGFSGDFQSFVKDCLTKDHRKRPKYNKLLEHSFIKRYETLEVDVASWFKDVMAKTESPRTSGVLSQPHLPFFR

CC(C)=CCC1=C(O)C(=O)c2ccccc2C1=O [Compound 3, lapachol]
did not bind: Kd (μM) vs MKK7 (MKK7; KINOMEscan, duplicate, maximum concentration 30 μM)
> 50 µM: IC50 [1] | IC50 [2] | IC50 [3] | IC50 [4] | IC50 [5] | IC50 (Jurkat T cells) | IC50 (U936) | IC50 [6] | IC50 [7] | IC50 [8] | IC50 [9]
did not find any toxicity: cytotoxicity toward tumor cell lines and PBMCs (in words) [10]
> 30 µM: Kd (MKK7)
